Measured values taken from patent US10242153B2, “Method for determining the risk profile of neoplastic tissue” (NOVAZOI THERANOSTICS, priority 2014, dated 2019).

Assays:
[1] = system: MDA-MB-231 (231), PC3, and HeLa cells; assay: Mitotic arrest (MA) metrics by flow cytometry (anti-MPM2) across cell lines; format: cell-based
Description: FIG. 10 depicts mitotic arrest metrics across cell lines for each declustering drug. […] A lack of box in the plot occurs when the median is very close (or equal) to the inter-quartile range limits, in which case notch is shown with a default height and starting point of whisker line extension indicates 25% or 75% position. Because the coarse-grained data are integers and the size of the data sets are small (n<8), in some cases the median, lower or upper inter-quartile range values, or the max or min values, may coincide in some combination. This figure broadly visualizes clustering and correlation in the coarse-grained data. For instance, non-integer values have no intrinsic meaning but, for instance, a median value of 4.4 indicates a concentration of categories recorded in categories 4 or 5. […] TRH=“time reach highest” value; CTP=“consecutive time points,” MA_totCTP=sum(MA_SnCTP for n=2 . . . 5).
To evaluate the impact of putative declustering drugs on cell cycle progression and hypodiploidy (<2N DNA content, which may indicate apoptotic cells), MDA-MB-231 (231), PC3, and HeLa cells were treated with different concentrations of declustering drugs, stained with propidium iodide, labeled with anti-MPM2 antibody, and then assessed by flow cytometry at multiple time points over 48 hr. […]

[2] = system: ZR-75-30 cells with amplified centrosomes (ZR-A); assay: Sub-G1 population in ZR-75-30 cells with amplified centrosomes (ZR-A) versus parent cells; format: cell-based; conditions: 25 μM, 48 h
Description: Panel A depicts representative DNA histograms comparing cell-cycle kinetics of ZR-75-30 cells and ZR-A cells treated with bromonoscapine (BN, 25 μM), griseofulvin (GF, 25 μM) or PJ34 (25 μM), respectively for 48 h. […] Panel B depicts a quantitative comparison of sub-G1 population in ZR-75-30 and ZR-A cells upon treatment with the three drugs with the same concentration (25 μM) for the same duration (48 h).
Accordingly, these cells can be pharmacologically manipulated with aphidicolin to generate extra centrosomes. […] Following aphidicolin wash-out, cells were stained using anti-centrin-2 antibodies to verify extra centrosomes by immunofluorescence confocal microscopy. About ˜60% ZR-75-30 cells generated extra centrosomes (6-8 per cell) and were evaluated for their sensitivity to the three drugs, griseofulvin, bromonoscapine, and PJ34, and compared with parent ZR-75-30 cells with normal centrosomes.

231 cells = assay: Centrosome amplification (CA) by microscopy (γ-tubulin/centrin-2 foci), 231 cells; format: cell-based, human
Description: Consequently, CA was assessed in cultures treated with different concentrations of declustering drugs for 6, 12, 18, or 24 h and untreated controls via microscopy. Centrosomes were identified by γ-tubulin and centrin-2 colocalization at discrete foci. […] The peak percent CA detected over 24 h is shown in FIG. 13 (only statistically significant (P<0.05) increases over control values are represented in the Figures). To better understand the “potency” of drug-induced CA with time, the average fold change in CA over controls over 24 h was assessed (FIG. 12, panel A), whereby the extent of CA across time points (i.e., 6, 12, 18, and 24 hr) was averaged and then divided by the extent of CA in control (i.e., 0 hr). All of the drugs at least doubled the peak extent of CA in all cell lines tested (FIG. 12, panel A), although the final extent of CA could be small or large in magnitude depending on the initial centrosomal burden as shown in FIG. 11. […] The peak extent in interphase HeLa cells was somewhat less at 30.7% and 48.1% for 10 and 25 μM RBN, respectively (FIG. 13, panel A). For Nos and BN, there was no major difference in CA levels in interphase versus mitotic cells.

231, HeLa and PC3 cells = assay: Centrosome amplification (CA) by microscopy across cancer cell lines; format: cell-based; conditions: 25 μM
Description: Consequently, CA was assessed in cultures treated with different concentrations of declustering drugs for 6, 12, 18, or 24 h and untreated controls via microscopy. Centrosomes were identified by γ-tubulin and centrin-2 colocalization at discrete foci.
The peak percent CA detected over 24 h is shown in FIG. 13 (only statistically significant (P<0.05) increases over control values are represented in the Figures).
To better understand the “potency” of drug-induced CA with time, the average fold change in CA over controls over 24 h was assessed (FIG. 12, panel A), whereby the extent of CA across time points (i.e., 6, 12, 18, and 24 hr) was averaged and then divided by the extent of CA in control (i.e., 0 hr). All of the drugs at least doubled the peak extent of CA in all cell lines tested (FIG. 12, panel A), although the final extent of CA could be small or large in magnitude depending on the initial centrosomal burden as shown in FIG. 11. […] The extent of CA was less in interphase cells, with maximum values of 31% and 87% for 10 and 25 μM RBN (FIG. 13, panel A). […] The peak extent in interphase HeLa cells was somewhat less at 30.7% and 48.1% for 10 and 25 μM RBN, respectively (FIG. 13, panel A). For Nos and BN, there was no major difference in CA levels in interphase versus mitotic cells.

[3] = system: PLK4, Cyclin E, and Aurora A; assay: Western blotting of markers of centrosome amplification; format: cell-based; conditions: PC3 cells, 25 μM
[4] = system: human ovarian cancer xenografts; conditions: nude mice carrying human ovarian cancer xenografts; cited from earlier work

| Compound | mean time to peak MA (MA:TRH) ([1]; coarse-grained categories) | sub-G1 population versus parent ZR-75-30 cells [2] | change of peak CA extent over controls (231 cells; 231 cells, 25 μM) | final extent of CA (231 cells; 231 cells, 25 μM, cell cycle stage not stated) | maximum extent of CA (231 cells; interphase 231 cells, 10 μM) | maximum extent of CA (231 cells; interphase 231 cells, 25 μM) | increase in CA over controls (231 cells; mitotic 231 cells, 10 μM) | maximum extent of CA (231 cells; mitotic 231 cells, 10 μM) | increase in CA over controls (231 cells; mitotic 231 cells, 25 μM) | maximum extent of CA (231 cells; mitotic 231 cells, 25 μM) | induction of CA (231, HeLa and PC3 cells) | peak MA (MA:HR), cells in MA ([1]; category near "4") | expression of Cyclin E and PLK4 [3] | toxicity in normal tissues [4] | tumor progression [4] |
| --- | --- | --- | --- | --- | --- | --- | --- | --- | --- | --- | --- | --- | --- | --- | --- |
| CN(C)CC(=O)Nc1ccc2[nH]c(=O)c3ccccc3c2c1 [PJ, PJ-34] | ~12 h | much higher sub-G1 population compared to parent ZR-75-30 cells |  |  |  |  |  |  |  |  |  |  |  |  |  |
| reduced-9-bromonoscapine [RBN] |  |  | slightly more than doubled | around 90% | 31% | 87% | ~2.5 fold | 56% | ~2.0 fold | 96% | induced CA in all three cell lines | ≥ 30% | increased Cyclin E and PLK4 expression | toxicity was not detected | inhibited tumor progression |
